Assay results taken from US8318731B2, “Pyrrolopyrimidines” (Janssen Pharmaceutica NV, priority 2007, dated 2012).

Tests used:
A2780 = assay: Cellular proliferation assay (Alamar blue), A2780; assay type: cell-based; details: Homo sapiens, A2780, A2780 cells; 10% FCS; 72 h with compound; Alamar blue 24 h; read-out: pIC50 A2780 (converted)
In short: (§1)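 Cells in 10% FCS (37° C., 5% CO2) were seeded 24 hours before a 72-hour compound exposure. Viable cells were measured by Alamar blue fluorescence (544 nm/590 nm) after dye incubation of 4 h (HCT-116), 6 h (U87-MG) or 24 h (PC3, A2780). Effect is relative to control cells.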

H1299 = assay: Cellular proliferation assay (Alamar blue), H1299; assay type: cell-based; details: Homo sapiens, NCI-H1299, H1299 cells; 10% FCS; 72 h with compound; Alamar blue 4 h; read-out: pIC50 H1299 (converted)
In short: (§2)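 Viable cell number is determined by Alamar blue conversion after cells are treated with compound for 72 hours, following 24 hours of growth without compound in 10% FCS. The effect is calculated against control cells.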

U87-MG = assay: Cellular proliferation assay (Alamar blue), U87-MG; assay type: cell-based; details: Homo sapiens, U-87 MG; U87-MG cells; 10% FCS; 72 h with compound; Alamar blue 6 h; read-out: pIC50 U87MG (converted)
Method: Cellular proliferation of these compounds was tested on a panel of different cell lines in the presence of 10% FCS serum (37° C. and 5% (v/v) CO2). In a first step these cells were seeded and incubated for 24 hours in the absence of compound. In the second step the cells were incubated for 72 hours with the compounds to be tested for 72 hours. The viable cell number was finally assessed in a standard Alamar blue cell viability assay.
The viable cell number was assessed by incubation for either 4 h (HCT-116, H1299) 6 h (U87-MG) or 24 h (A2780, PC3, MDA-MB-231) with Alamar blue (Resazurin 9 μg/ml, K-Ferrocyanide 90 μM, K-Ferricyanide 90 μM) and the converted fluorescent product was quantified on a fluorescent plate readed (544 nm/590 nm). Effect of the compounds is calculated as of on control cells.

PC3 = assay: Cellular proliferation assay (Alamar blue), PC3; assay type: cell-based; details: Homo sapiens, PC-3, PC-3 cells; 10% FCS; 72 h with compound; Alamar blue 24 h; read-out: pIC50 PC-3 (converted)
In short: as §1

MDA-MB-231 = assay: Cellular proliferation assay (Alamar blue), MDA-MB-231; assay type: cell-based; details: Homo sapiens, MDA-MB-231, MDA-MB-231 cells; 10% FCS; 72 h with compound; Alamar blue 24 h; read-out: pIC50 MDA/MB231 (converted)
In short: as §2

HCT-116 = assay: Cellular proliferation assay (Alamar blue), HCT-116; assay type: cell-based; details: Homo sapiens; HCT-116 cells; 10% FCS; 72 h with compound; Alamar blue 4 h; read-out: pIC50 HCT-116 (converted)
In short: as §1

PLK4 (h) = biological target: T1, PLK4 (h) (Homo sapiens, UniProt O00444); assay: PLK-4 human kinase scintillation proximity assay (SPA); assay type: biochemical; details: 1 μM ATP, 60 minutes at r.t., read-out: PLK4 pIC50 (converted)
T1 sequence (O00444 1-970): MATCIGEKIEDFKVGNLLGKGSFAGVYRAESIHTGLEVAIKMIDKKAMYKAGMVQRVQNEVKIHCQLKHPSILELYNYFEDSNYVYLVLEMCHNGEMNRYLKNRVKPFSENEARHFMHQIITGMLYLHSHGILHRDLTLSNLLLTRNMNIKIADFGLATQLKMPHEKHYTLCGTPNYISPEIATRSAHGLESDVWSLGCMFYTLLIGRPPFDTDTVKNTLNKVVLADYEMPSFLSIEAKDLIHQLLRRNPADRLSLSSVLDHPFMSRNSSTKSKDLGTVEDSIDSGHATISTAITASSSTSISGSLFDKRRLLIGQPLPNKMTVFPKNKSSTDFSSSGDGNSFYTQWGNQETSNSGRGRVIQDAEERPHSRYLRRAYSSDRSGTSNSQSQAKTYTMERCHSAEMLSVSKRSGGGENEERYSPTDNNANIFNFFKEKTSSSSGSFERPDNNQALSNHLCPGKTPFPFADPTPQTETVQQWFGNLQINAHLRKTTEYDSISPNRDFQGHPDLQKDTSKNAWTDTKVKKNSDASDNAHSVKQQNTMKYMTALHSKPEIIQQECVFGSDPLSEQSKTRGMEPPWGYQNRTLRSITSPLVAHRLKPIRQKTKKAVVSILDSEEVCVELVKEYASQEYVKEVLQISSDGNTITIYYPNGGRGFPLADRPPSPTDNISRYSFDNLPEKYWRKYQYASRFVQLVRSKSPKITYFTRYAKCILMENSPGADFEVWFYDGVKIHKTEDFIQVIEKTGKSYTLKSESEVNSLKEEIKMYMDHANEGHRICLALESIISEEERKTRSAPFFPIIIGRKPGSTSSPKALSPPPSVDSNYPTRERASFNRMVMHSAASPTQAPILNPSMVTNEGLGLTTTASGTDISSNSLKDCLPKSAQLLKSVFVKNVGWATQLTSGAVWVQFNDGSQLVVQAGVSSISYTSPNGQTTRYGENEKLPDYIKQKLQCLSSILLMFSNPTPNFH
In short: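 Human PLK4 (19 μg/ml) reacted with 10 μM biotinylated peptide, 1 μM ATP plus 2 nM [γ-33P]ATP in HEPES pH 8.0 with MgCl2, NaCl, NaF and DTT for 60 min at r.t. After an EDTA stop, phosphorylated substrate was captured on streptavidin PVT SPA beads and scintillation imaged.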

| Compound | IC50 (A2780) | IC50 (H1299) | IC50 (U87-MG) | IC50 (PC3) | IC50 (MDA-MB-231) | IC50 (HCT-116) | IC50 (PLK4 (h)) |
| --- | --- | --- | --- | --- | --- | --- | --- |
| CN1CCN(C)C(=O)CCCCOc2cc(ccc2Cl)Nc2ncnc3[nH]cc(c23)C1 [Compound 49] | > 10 µM | > 10 µM | > 10 µM | > 10 µM | > 10 µM | > 10 µM | 3.16 µM |
| CN1CCCN(C)C(=O)COc2cc(cc(C(F)(F)F)c2)Nc2ncnc3[nH]cc(c23)C1 [Compound 54] | > 10 µM | > 10 µM | > 10 µM | > 10 µM | > 10 µM | > 10 µM | 0.251 µM |
| CN1CCCN(C)C(=O)CCc2cc(ccc2N2CCOCC2)Nc2ncnc3[nH]cc(c23)C1 [Compound 56] | > 10 µM | > 10 µM | > 10 µM | > 10 µM | > 10 µM | > 10 µM | 5.01 µM |
| COc1cc2cc(c1OC)OCC(=O)N(C)CCCN(C)Cc1c[nH]c3ncnc(c13)N2 [Compound 57] | > 10 µM | > 10 µM | > 10 µM | > 10 µM | > 10 µM | > 10 µM | 3.98 µM |
| CN1CCN(C)C(=O)COc2cccc(c2)Nc2ncnc3[nH]cc(c23)C1 [Compound 58] | 3.16 µM | 5.01 µM | 6.31 µM | 7.94 µM | 10 µM | 2.51 µM | 0.0501 µM |
| COc1ccc2cc1OCC(=O)N(C)CCCN(CC1CC1)Cc1c[nH]c3ncnc(c13)N2 [Compound 59] | > 10 µM | > 10 µM | > 10 µM | > 10 µM | > 10 µM | > 10 µM | 0.158 µM |
| COc1ccc2cc1OCC(=O)N(C)CCN(C)CCCc1c[nH]c3ncnc(c13)N2 [Compound 60] | > 10 µM | > 10 µM | > 10 µM | > 10 µM | > 10 µM | > 10 µM | 1 µM |
| COc1ccc2cc1OCC(=O)N(C)CCCN(Cc1ccccc1)Cc1c[nH]c3ncnc(c13)N2 [Compound 61] | > 10 µM | > 10 µM | > 10 µM | > 10 µM | > 10 µM | > 10 µM | 0.1 µM |
| COc1ccc2cc1OCC(=O)N(C)CCCN(Cc1ccncc1)Cc1c[nH]c3ncnc(c13)N2 [Compound 62] | > 10 µM | > 10 µM | > 10 µM | > 10 µM | > 10 µM | > 10 µM | 0.631 µM |
| CCOc1ccc2cc1OCC(=O)N(C)CCCN(C)Cc1c[nH]c3ncnc(c13)N2 [Compound 63] | 0.501 µM | 2 µM | 2 µM | 2.51 µM | 3.16 µM | 0.631 µM | 0.0794 µM |
| COc1ccc2cc1OCC(=O)N(C1CCCCC1)CCCN(C)Cc1c[nH]c3ncnc(c13)N2 [Compound 64] | > 10 µM | > 10 µM | > 10 µM | > 10 µM | > 10 µM | > 10 µM | 0.251 µM |

Second part, the compound after the results:

| IC50 (A2780) | IC50 (H1299) | IC50 (U87-MG) | IC50 (PC3) | IC50 (MDA-MB-231) | IC50 (HCT-116) | IC50 (PLK4 (h)) | Compound |
| --- | --- | --- | --- | --- | --- | --- | --- |
| > 10 µM | > 10 µM | > 10 µM | > 10 µM | > 10 µM | > 10 µM | 0.0794 µM | COc1ccc2cc1OCC(=O)N(C)CCCNCc1c[nH]c3ncnc(c13)N2 [Compound 65] |
| > 10 µM | > 10 µM | 1.58 µM | 7.94 µM | > 10 µM | 5.01 µM | 0.0398 µM | CN1CCCN(C)C(=O)COc2cc(ccc2NC(=O)NC2CCCC2)Nc2ncnc3[nH]cc(c23)C1 [Compound 66] |
| 2.51 µM | 2.51 µM | > 10 µM | > 10 µM | > 10 µM | 0.794 µM | 0.0631 µM | CN1CCCN(C)C(=O)COc2cc(ccc2NC(=O)Nc2cccc(Cl)c2)Nc2ncnc3[nH]cc(c23)C1 [Compound 67] |
| 0.631 µM | 1.58 µM | 1.58 µM | 3.16 µM | 2 µM | 0.631 µM | 0.0398 µM | CN1CCCN(C)C(=O)COc2cc(ccc2OCC2CC2)Nc2ncnc3[nH]cc(c23)C1 [Compound 68] |
| 1 µM | 3.98 µM | 2.51 µM | 6.31 µM | 5.01 µM | 2 µM | 0.0794 µM | COc1cc(NC(=O)COc2ccc3cc2OCC(=O)N(C)CCCN(C)Cc2c[nH]c4ncnc(c24)N3)cc(OC)c1OC [Compound 71] |
| > 10 µM | > 10 µM | > 10 µM | > 10 µM | > 10 µM | > 10 µM | > 10 µM | COc1cc2cc(c1OC)CN(C)CC(=O)N(C)CCCc1c[nH]c3ncnc(c13)N2 [Compound 72] |
| 0.794 µM | 1.26 µM | 2.51 µM | 2 µM | > 10 µM | 2 µM | 0.0398 µM | CN1CCCN(C)C(=O)COc2cc(ccc2OC(F)F)Nc2ncnc3[nH]cc(c23)C1 [Compound 76] |
| 2.51 µM | 7.94 µM | 3.16 µM | 3.16 µM | 5.01 µM | 3.16 µM | 0.0631 µM | CCN(CCOC)CCOc1ccc2cc1OCC(=O)N(C)CCCN(C)Cc1c[nH]c3ncnc(c13)N2 [Compound 77] |
| 6.31 µM | > 10 µM | > 10 µM | > 10 µM | > 10 µM | > 10 µM | 0.0631 µM | CN1CCCN(C)C(=O)COc2cc(ccc2OCCO)Nc2ncnc3[nH]cc(c23)C1 [Compound 80] |
| 2 µM | 2 µM | 1.58 µM | 3.16 µM | 7.94 µM | 1.26 µM | 0.0794 µM | CN1CCCN(C)C(=O)COc2cc(ccc2N2CCCC2)Nc2ncnc3[nH]cc(c23)C1 [Compound 82] |
| 0.501 µM | 3.16 µM | 1.26 µM | 2.51 µM | 3.98 µM | 1 µM | 0.2 µM | CN1CCN(c2ccc3cc2OCC(=O)N(C)CCCN(C)Cc2c[nH]c4ncnc(c24)N3)CC1 [Compound 84] |
| 1.58 µM | 2 µM | 2 µM | 5.01 µM | 7.94 µM | 2 µM | 0.158 µM | CN1CCCN(C)C(=O)COc2cc(ccc2N2CCOCC2)Nc2ncnc3[nH]cc(c23)C1 [Compound 85] |
